Patent US20250170117A1, “MODULATORS OF ACKR3 AND USES THEREOF” (InterAx Biotech AG, priority 2022, published 2025)

biological target: T1, NanoLuc-hACKR3 (Homo sapiens, UniProt P25106); assay: NanoBRET binding study (displacement of fluorescently labelled CXCL12); conditions: displacement of 0.3 nM CXCL12-AF647; membranes of HEK293T cells expressing NanoLuc-ACKR3; 1 hour incubation; read-out: Affinity
T1 construct: expressed in transfected cells; host or cells: HEK293T (transient, PEI; membrane preparation)
Description: Membranes of HEK293T cells that transiently express the NanoLuc-hACKR3 were produced. 2 million HEK293T cells were seeded per […] dish and were transfected the next day using a DNA/PEI-mix containing 0.25 μg plasmid DNA encoding for the ACKR3, 4.75 μg pcDEF3 plasmid DNA and 30 μg linear PEI. Two days after transfection, cells were collected in PBS and pelleted by centrifugation. Cell pellets were resuspended in ice-cold membrane buffer (15 mM Tris, 0.3 mM EDTA, 2 mM MgCl2, pH 7.4 at 4° C.) and were dounce-homogenized on ice by plunging the pestle […] with 1500 rpm. Cell homogenates were subsequently subjected to two freeze-thaw cycles using liquid nitrogen. Next, the cell homogenates were centrifuged at 40,000 g and pellets were resuspended in Tris-sucrose buffer (20 mM Tris, 250 mM Sucrose, pH 7.4 at 4° C.). Finally, the membrane samples were homogenized using a 23-gauge needle, snap-frozen with liquid nitrogen and stored until further experimentation at −80° C.
Binding reactions were measured in triplicate on white low-volume 384-well plates and started by combining 0.3 nM fluorescently labelled CXCL12 (CXCL12 labelled with a AF647® dye in a molar ratio of dye:peptide of 1:1, purchased from ALMAC, h-SDF-1α (AF647®), cat. No. CAF-11, Sequence:
[…](Ale xa647®)ALN), increasing concentrations of test compound (10^−5 M-10^−11 M) with 35 ng membranes (protein content) per well of HEK293T cells expressing the NanoLuc-ACKR3. All dilutions were prepared in HBSS supplemented with 0.2% BSA. After assembling the binding reaction, the plate was flash-centrifuged at 500 g. Binding reactions were then incubated for 1 hour after which NanoGlo substrate was added (310 times diluted from stock concentration) to a final volume of 13.5 μL. The reaction plate was again pulse-centrifuged to 500 g and the total light intensity was measured for 460 nm wavelength with 80 nm bandwidth and separately for wavelengths ≥610 nm using the PHERAstar-FSX (BMG Labtech, Ortenberg, Germany) with a dual emission filter. The ratio of light intensities (>610 nm over 460 nm) is a measure for the relative binding of CXCL12-A647 to the NanoLuc-ACKR3. The pharmacological data are presented in Appendix 1.

T1 sequence (P25106 whole entry): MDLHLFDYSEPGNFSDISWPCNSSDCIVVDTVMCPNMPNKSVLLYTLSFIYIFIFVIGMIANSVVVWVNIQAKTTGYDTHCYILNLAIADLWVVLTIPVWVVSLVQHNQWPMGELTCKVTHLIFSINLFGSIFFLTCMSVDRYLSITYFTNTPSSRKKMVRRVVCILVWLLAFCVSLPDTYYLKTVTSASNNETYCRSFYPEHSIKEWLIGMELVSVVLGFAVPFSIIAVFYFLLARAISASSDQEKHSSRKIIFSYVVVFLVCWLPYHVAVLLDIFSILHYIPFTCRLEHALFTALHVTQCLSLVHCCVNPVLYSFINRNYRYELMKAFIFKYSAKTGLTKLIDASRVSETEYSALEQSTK

| SMILES | Ki |
| --- | --- |
| O=C(NCC1CCN(C2CCCCC2)CC1)c1cc(-c2ccccc2)on1 [Molecule 2] | > 10000 nM |
| O=C(NCC1CCN(C(=O)C2CC2)CC1)c1cc(-c2ccc(F)cc2F)on1 [Molecule 7] | > 10000 nM |
| O=C(NCC1CCN(C(=O)C2CCC2)CC1)c1cc(-c2ccc(F)cc2F)on1 [Molecule 8] | > 10000 nM |
| O=C(NCC1CCN(C(=O)C2CCCCC2)CC1)c1cc(-c2ccc(F)cc2F)on1 [Molecule 9] | > 10000 nM |
| O=C(NCC1CCN(C(=O)c2cnc3ccccc3n2)CC1)c1cc(-c2ccc(F)cc2F)on1 [Molecule 12] | 1000 to 10000 nM |
| O=C(NCC1CCN(S(=O)(=O)C2CC2)CC1)c1cc(-c2ccc(F)cc2F)on1 [Molecule 14] | > 10000 nM |
| O=C(NCC1CCN(CC2CCCC2)CC1)c1cc(-c2ccc(F)cc2F)on1 [Molecule 16] | 100 to 1000 nM |
| O=C(NCC1CCN(Cc2ccccc2)CC1)c1cc(-c2ccc(F)cc2F)on1 [Molecule 17] | 100 to 1000 nM |
| O=C(NCC1CCN(C2CCC2)CC1)c1cc(-c2ccc(F)cc2F)on1 [Molecule 18] | 100 to 1000 nM |
| O=C(NCC1CCN(C2CCCC2)CC1)c1cc(-c2ccc(F)cc2F)on1 [Molecule 19] | 100 to 1000 nM |
| O=C(NCC1CCN(C2CCCCCC2)CC1)c1cc(-c2ccc(F)cc2F)on1 [Molecule 20] | 100 to 1000 nM |
| O=C(NCC1CCN(CC2CCCCC2)CC1)c1cc(-c2ccc(F)cc2F)on1 [Molecule 22] | 1000 to 10000 nM |
| O=C(NCC1CCN(CCc2ccccc2)CC1)c1cc(-c2ccc(F)cc2F)on1 [Molecule 23] | 100 to 1000 nM |
| O=C(NCC1CCN(CCCc2ccccc2)CC1)c1cc(-c2ccc(F)cc2F)on1 [Molecule 24] | ≤ 100 nM |
| COc1ccccc1CN1CCC(CNC(=O)c2cc(-c3ccc(F)cc3F)on2)CC1 [Molecule 25] | ≤ 100 nM |
| COc1cccc(CN2CCC(CNC(=O)c3cc(-c4ccc(F)cc4F)on3)CC2)c1 [Molecule 26] | ≤ 100 nM |
| COc1ccc(CN2CCC(CNC(=O)c3cc(-c4ccc(F)cc4F)on3)CC2)cc1 [Molecule 27] | ≤ 100 nM |
| O=C(NCC1CCN(Cc2ccccn2)CC1)c1cc(-c2ccc(F)cc2F)on1 [Molecule 28] | 100 to 1000 nM |
| O=C(NCC1CCN(Cc2cccnc2)CC1)c1cc(-c2ccc(F)cc2F)on1 [Molecule 29] | 100 to 1000 nM |

| SMILES | Ki |
| --- | --- |
| O=C(NCC1CCN(Cc2ccncc2)CC1)c1cc(-c2ccc(F)cc2F)on1 [Molecule 30] | 1000 to 10000 nM |
| CN(C)C(=O)c1cccc(CN2CCC(CNC(=O)c3cc(-c4ccc(F)cc4F)on3)CC2)c1 [Molecule 31] | 1000 to 10000 nM |
| O=C(NCC1CCN(c2ccccc2)CC1)c1cc(-c2ccc(F)cc2F)on1 [Molecule 32] | > 10000 nM |
| Cc1ccc(CN2CCC(CNC(=O)c3cc(-c4ccc(F)cc4F)on3)CC2)cc1 [Molecule 33] | ≤ 100 nM |
| O=C(NCC1CCN(Cc2ccc(Cl)cc2)CC1)c1cc(-c2ccc(F)cc2F)on1 [Molecule 34] | ≤ 100 nM |
| N#Cc1ccc(CN2CCC(CNC(=O)c3cc(-c4ccc(F)cc4F)on3)CC2)cc1 [Molecule 35] | > 10000 nM |
| COC(=O)c1ccc(CN2CCC(CNC(=O)c3cc(-c4ccc(F)cc4F)on3)CC2)cc1 [Molecule 36] | ≤ 100 nM |
| CN(C)c1ccc(CN2CCC(CNC(=O)c3cc(-c4ccc(F)cc4F)on3)CC2)cc1 [Molecule 37] | ≤ 100 nM |
| O=C(NCC1CCN(Cc2ccc(OC(F)(F)F)cc2)CC1)c1cc(-c2ccc(F)cc2F)on1 [Molecule 38] | > 10000 nM |
| CC(=O)Nc1ccc(CN2CCC(CNC(=O)c3cc(-c4ccc(F)cc4F)on3)CC2)cc1 [Molecule 39] | ≤ 100 nM |
| O=C(O)c1ccc(CN2CCC(CNC(=O)c3cc(-c4ccc(F)cc4F)on3)CC2)cc1 [Molecule 40] | 1000 to 10000 nM |
| CN(C)C(=O)c1ccc(CN2CCC(CNC(=O)c3cc(-c4ccc(F)cc4F)on3)CC2)cc1 [Molecule 41] | 1000 to 10000 nM |
| O=C(NCC1CCN(C/C=C/c2ccccc2)CC1)c1cc(-c2ccc(F)cc2F)on1 [Molecule 42] | ≤ 100 nM |
| O=C(NCC1CCN(Cc2ccc([N+](=O)[O-])cc2)CC1)c1cc(-c2ccc(F)cc2F)on1 [Molecule 43] | > 10000 nM |
| O=C(NCC1CCN(CCCCc2ccccc2)CC1)c1cc(-c2ccc(F)cc2F)on1 [Molecule 45] | ≤ 100 nM |
| COc1ccc(CN2CCC(CNC(=O)c3cc(-c4ccc(F)cc4F)on3)CC2)cc1OC [Molecule 46] | ≤ 100 nM |
| COc1cc(CN2CCC(CNC(=O)c3cc(-c4ccc(F)cc4F)on3)CC2)cc(OC)c1OC [Molecule 47] | 100 to 1000 nM |
| CS(=O)(=O)c1ccc(CN2CCC(CNC(=O)c3cc(-c4ccc(F)cc4F)on3)CC2)cc1 [Molecule 48] | 1000 to 10000 nM |
| NS(=O)(=O)c1ccc(CN2CCC(CNC(=O)c3cc(-c4ccc(F)cc4F)on3)CC2)cc1 [Molecule 49] | 100 to 1000 nM |

| SMILES | Ki |
| --- | --- |
| O=C(NCC1CCN(Cc2ccc(O)cc2)CC1)c1cc(-c2ccc(F)cc2F)on1 [Molecule 50] | ≤ 100 nM |
| O=C(NCC1CCN(Cc2ccc(C(F)(F)F)cc2)CC1)c1cc(-c2ccc(F)cc2F)on1 [Molecule 51] | > 10000 nM |
| O=C(NCC1CCN(Cc2ccc(F)cc2)CC1)c1cc(-c2ccc(F)cc2F)on1 [Molecule 52] | 100 to 1000 nM |
| O=C(NCC1CCN(Cc2ccc(Br)cc2)CC1)c1cc(-c2ccc(F)cc2F)on1 [Molecule 53] | 100 to 1000 nM |
| O=C(NCC1CCN(C/C=C/c2ccccc2)CC1)c1cc(-c2ccc(F)cc2F)n[nH]1 [Molecule 58] | 1000 to 10000 nM |
| O=C(NCC1CCN(C/C=C/c2ccccc2)CC1)c1cn(-c2ccc(F)cc2F)nn1 [Molecule 61] | ≤ 100 nM |
| O=C(NCC1CCN(C/C=C/c2ccccc2)CC1)c1cnn(-c2ccc(F)cc2F)c1 [Molecule 64] | 100 to 1000 nM |
| O=C(NCC1CCN(C/C=C/c2ccccc2)CC1)c1cnn(-c2ccc(F)cc2F)n1 [Molecule 68] | 1000 to 10000 nM |
| O=C(NCC1CCN(C/C=C/c2ccccc2)CC1)c1nnn(-c2ccc(F)cc2F)n1 [Molecule 72] | 100 to 1000 nM |
| O=C(NCC1CCN(C/C=C/c2ccccc2)CC1)c1nc(-c2ccc(F)cc2F)c[nH]1 [Molecule 77] | 1000 to 10000 nM |
| O=C(NCC1CCN(C/C=C/c2ccccc2)CC1)c1nc(-c2ccc(F)cc2F)cs1 [Molecule 80] | 1000 to 10000 nM |
| O=C(NCC1CCN(C/C=C/c2ccccc2)CC1)c1csc(-c2ccc(F)cc2F)n1 [Molecule 82] | 1000 to 10000 nM |
| O=C(NCC1CCN(C/C=C/c2ccccc2)CC1)c1ncc(-c2ccc(F)cc2F)s1 [Molecule 85] | ≤ 100 nM |
| O=C(NCC1CCN(C/C=C/c2ccccc2)CC1)c1cnc(-c2ccc(F)cc2F)s1 [Molecule 87] | ≤ 100 nM |
| O=C(NCC1CCN(C/C=C/c2ccccc2)CC1)c1nnc(-c2ccc(F)cc2F)s1 [Molecule 89] | ≤ 100 nM |
| O=C(NCC1CCN(C/C=C/c2ccccc2)CC1)c1cc(-c2ccc(F)cc2F)no1 [Molecule 92] | ≤ 100 nM |
| O=C(NCC1CCN(C/C=C/c2ccccc2)CC1)c1ncc(-c2ccc(F)cc2F)o1 [Molecule 94] | 100 to 1000 nM |
| O=C(NCC1CCN(C/C=C/c2ccccc2)CC1)c1nnc(-c2ccc(F)cc2F)o1 [Molecule 96] | ≤ 100 nM |
| O=C(NCC1CCN(C/C=C/c2ccccc2)CC1)c1nc(-c2ccc(F)cc2F)no1 [Molecule 99] | 100 to 1000 nM |
